Test results from publication PMC6271477, “Effects of Single Amino Acid Substitution on the Biophysical Properties and Biological Activities of an Amphipathic α-Helical Antibacterial Peptide Against Gram-Negative Bacteria” (Molecules, 2014).

Experiments:
E. coli DH5α = assay: MIC by broth dilution; format: cell-based; settings: MH broth, 5 × 10^5 CFU/mL, 24 h at 37 °C
Method: (§1) Minimal inhibitory concentrations (MIC) were determined using a broth dilution method. Briefly, bacteria were grown overnight at 37 °C in Mueller–Hinton (MH) Broth, diluted in the same medium and transferred into 96-well microtiter plates (90 μL/well). Peptides were serially diluted using 0.2% bovine serum albumin containing 0.01% acetic acid and added to the microtiter plates in a volume of 10 μL per well to give a final concentration of 5 × 10^5 CFU/mL. MICs were defined as the lowest peptide concentration that inhibited bacterial growth after incubation for 24 h at 37 °C.

E. coli Clinical Isolate = format: cell-based; settings: Clinical Isolate, 24 h
Method: as §1

P. aeruginosa ATCC27853 = format: cell-based; settings: ATCC27853, 24 h
Method: as §1

E. coli ATCC25922 = format: cell-based; settings: ATCC25922, 24 h
Method: as §1

P. aeruginosa H188 = format: cell-based; settings: H188, 24 h
Method: as §1

[1] = Analytical RP-HPLC retention time as a measure of peptide hydrophobicity; format: physicochemical; settings: RP-HPLC at 25 °C, Zorbax 300 SB-C8 column, linear AB gradient, A 0.1% aqueous TFA, B 0.1% TFA in acetonitrile, 1 mL/min, detection at 210 nm
Method: Among substitutions, the retention times ranged from 32.2 min (peptide V16K) to 40.4 min (peptide V16L), which reflect the pure effects of single amino acid substitutions. Thus, the retention times of peptides reflect the relative hydrophobicity of side chains. Consistent with previous studies, the hydrophobicity of peptide analogs was generally in the following order: Lys < Gly < Ser < Ala < Val < Leu. Glu-substituted peptide was an exception, as it contains a negatively-charged side chain and this should decrease the hydrophobicity of the peptide dramatically.
Peptides were analyzed on a Shimadzu LC-20A HPLC using a Zorbax 300 SB-C8 column (150 ° 4.6 mm i.d., 5 μm particle size, 300 Å pore size) from Agilent Technologies using a linear AB gradient and a flow rate of 1 mL/min, where solvents A and B were as described above. Absorbance signals of peptides were detected at 210 nm.

[2] = Tryptophan fluorescence in HEPES buffer; format: physicochemical; settings: peptide 2 μM, excitation 280 nm
Excerpt: (§2) Upon peptide diffusion into the cytoplasmic membrane, evidence of selective interaction between peptides with bacterial versus mammalian cytoplasmic membrane was illustrated by the binding events of the peptides to anionic or zwitterionic lipid vesicles. The repositioning of the tryptophan indole group in an environment of reduced polarity upon membrane binding results in a blue shift in the fluorescence excitation maximum coupled with an enhancement of emission intensity. Lipid/peptide (L/P) ratios were maintained high enough at low peptide concentration (2 μM) in order to mimic the initial steps of peptide-membrane binding. The spectra were recorded as shown in Supplementary Figure S1. […] The significant blue shifts of Δλmax (17 to 23 nm) for all peptides upon exposure to PC/PG vesicles indicated a membrane partition state of Trp in negatively charged vesicles containing 30% anionic lipids (PG).
(§3) Fluorescence emission spectra of peptide Trp residues were monitored by a Shimadzu RF-5301 spectrofluorometer. The excitation of wavelength was set as 280 nm and the emission spectra of each peptide, with or without lipid vesicles, were recorded between 300 and 450 nm. Thus three curves were recorded for each peptide, in HEPES buffer or with either PC/PG vesicles or PC/cholesterol vesicles. The blue shift of Trp residues in vesicles were referred to in buffer condition. The final concentrations of peptide and lipid were 2 μM and 100 μM (1/50), respectively.

[3] = Tryptophan fluorescence, binding to lipid vesicles; settings: for Tryptophan fluorescence emission maximum: excitation 280 nm
Method: as §2, with “The repositioning of the tryptophan indole group in an environment of reduced polarity upon membrane binding results in a blue shift in the fluorescence excitation maximum coupled with an enhancement of emission intensity.” left out
Unilamellar vesicles were prepared by a standard procedure with either PC/PG (7:3, w/w) or PC/cholesterol (8:1, w/w) as described previously. Briefly, the desired mixtures of lipids were dissolved in a chloroform/methanol mixture (2:1, v/v), dried under nitrogen and then lyophilized for 24 h to remove traces of organic solvent. Dry lipid films were suspended in 10 mM HEPES buffer containing 150 mM NaCl (pH 7.4) by vortex mixing. After five freeze-thawing cycles, the suspension was extruded 15 times through double polycarbonate membranes with 0.1 μm diameter pores on an Avanti mini-extruder apparatus. The lipid concentration was determined by phosphorus analysis as previously reported.
as §3

[4] = CD spectroscopy, helicity in benign buffer and in 50% TFE; format: physicochemical; settings: for [θ]222, mean residue molar ellipticity, benign / [θ]222, mean residue molar ellipticity, 50% TFE: CD at 222 nm, peptide 75 μM; for [θ]222, mean residue molar ellipticity, benign / [θ]222, mean residue molar ellipticity, 50% TFE / % helix, 50% TFE: 25 °C; for [θ]222, mean residue molar ellipticity, benign: KP buffer (100 mM KCl, 50 mM K2HPO4/KH2PO4, pH 7.0); for [θ]222, mean residue molar ellipticity, 50% TFE / % helix, 50% TFE: KP buffer diluted 1:1 (v/v) with TFE; for % helix, 50% TFE / % helix, benign: relative to the molar ellipticity of peptide V16E in 50% TFE; for % helix, benign: KP buffer pH 7.0, 25 °C
Method: The secondary structures of peptides were determined in benign buffer and in a hydrophobic environment (50% trifluoroethanol, TFE) to mimic the hydrophobic environment of the membrane. […] The principle of side chain interaction at the i to i + 3 and i to i + 4 positions has been used to promote α-helix stability, for example, the incorporation of Lys and Glu residues to stabilize electrostatic attractions. Thus, the helicity of peptide V16E in the presence of 50% TFE that presented the greatest value among all analogs should rely on the contribution of the electrostatic attraction of the side chain of K13 and E16, which stabilizes the helix. The relative helicity is 100% for peptide V16E in 50% TFE, showing the importance of the salt bridges of K13 and E16 to stabilize the helical structure. In general, subtle side-chain alterations by single amino acid substitutions made no significant changes on secondary structures both in aqueous and in hydrophobic environments (Table 2).
Circular dichroism spectra were measured with a 0.02 cm path length quartz cuvette on a Jasco J-810 spectropolarimeter (Jasco, Tokyo, Japan) at 25 °C. Data were collected from 250 to 190 nm at a sensitivity of 100 millidegrees, response time of 1 s, bandwidth of 1.0 nm and a scan speed of 100 nm/min. Peptides were measured at a concentration of 75 μM in a benign buffer (50 mM KH2PO4/K2HPO4, 100 mM KCl, pH 7) or the benign buffer mixed with 50% 2,2,2-trifluoroethanol (TFE). The mean residue molar ellipticities were calculated using the equation [θ] = θ/10lcMn, where θ is the ellipticity in millidegrees, l is the optical path length of the cuvette in centimeters, cM is the peptide concentration in mole/liter and n is the number of residues in the peptide.

[5] = PC/PG (7:3, w/w) vesicles versus HEPES buffer, lipid:peptide 50:1, peptide 2 μM
[6] = PC/PG (7:3, w/w) vesicles, lipid and peptide in a molar ratio of 50:1, peptide 2 μM, lipid 100 μM
[7] = PC/cholesterol (8:1, w/w) vesicles versus HEPES buffer, peptide 2 μM, lipid 100 μM
[8] = PC/cholesterol (8:1, w/w) vesicles, peptide 2 μM, lipid 100 μM

Substance: Ac-KWKSFLKTFKSAKKTALHTALKAISS-NH2 [Peptide V16A]
- MIC (E. coli DH5α): 4 µg/mL
- MIC (E. coli Clinical Isolate): 1 µg/mL
- MIC (P. aeruginosa ATCC27853): 4 µg/mL
- MIC (E. coli ATCC25922): 2 µg/mL
- MIC (P. aeruginosa H188): 4 µg/mL
- tR, retention time during RP-HPLC (relative hydrophobicity) [1]: 36.6 min
- Tryptophan fluorescence emission maximum [2]: 350 nm
- Blue shift in emission maximum [3, 5]: 22 nm
- Tryptophan fluorescence emission maximum [3, 6]: 328 nm
- Blue shift in emission maximum [3, 7]: 1 nm
- Tryptophan fluorescence emission maximum [3, 8]: 349 nm
- [θ]222, mean residue molar ellipticity, benign [4]: −3,057 degree·cm^2·dmol^−^1
- [θ]222, mean residue molar ellipticity, 50% TFE [4]: −28,769 degree·cm^2·dmol^−^1
- % helix, 50% TFE [4]: 95.7%
- % helix, benign [4]: 10.2%

Substance: Ac-KWKSFLKTFKSAKKTLLHTALKAISS-NH2 [Peptide V16L]
- MIC (E. coli DH5α): 4 µg/mL
- MIC (E. coli Clinical Isolate): 1 µg/mL
- MIC (P. aeruginosa ATCC27853): 2 µg/mL
- MIC (E. coli ATCC25922): 1 µg/mL
- MIC (P. aeruginosa H188): 2 µg/mL
- tR, retention time during RP-HPLC (relative hydrophobicity) [1]: 40.4 min
- Tryptophan fluorescence emission maximum [2]: 350 nm
- Blue shift in emission maximum [3, 5]: 23 nm
- Tryptophan fluorescence emission maximum [3, 6]: 326 nm
- Blue shift in emission maximum [3, 7]: 2 nm
- Tryptophan fluorescence emission maximum [3, 8]: 348 nm
- [θ]222, mean residue molar ellipticity, benign [4]: −3,595 degree·cm^2·dmol^−^1
- [θ]222, mean residue molar ellipticity, 50% TFE [4]: −29,803 degree·cm^2·dmol^−^1
- % helix, 50% TFE [4]: 99.1%
- % helix, benign [4]: 12.0%

Substance: Ac-KWKSFLKTFKSAKKTELHTALKAISS-NH2 [Peptide V16E]
- MIC (E. coli DH5α): 64 µg/mL
- MIC (E. coli Clinical Isolate): 125 µg/mL
- MIC (P. aeruginosa ATCC27853): 125 µg/mL
- MIC (E. coli ATCC25922): 16 µg/mL
- MIC (P. aeruginosa H188): 64 µg/mL
- tR, retention time during RP-HPLC (relative hydrophobicity) [1]: 34.6 min
- Tryptophan fluorescence emission maximum [2]: 350 nm
- Blue shift in emission maximum [3, 5]: 17 nm
- Tryptophan fluorescence emission maximum [3, 6]: 333 nm
- Blue shift in emission maximum [3, 7]: 1 nm
- Tryptophan fluorescence emission maximum [3, 8]: 349 nm
- [θ]222, mean residue molar ellipticity, benign [4]: −3,465 degree·cm^2·dmol^−^1
- [θ]222, mean residue molar ellipticity, 50% TFE [4]: −30,063 degree·cm^2·dmol^−^1
- % helix, 50% TFE [4]: 100%
- % helix, benign [4]: 11.5%

Substance: Ac-KWKSFLKTFKSAKKTGLHTALKAISS-NH2 [Peptide V16G]
- MIC (E. coli DH5α): 8 µg/mL
- MIC (E. coli Clinical Isolate): 16 µg/mL
- MIC (P. aeruginosa ATCC27853): 32 µg/mL
- MIC (E. coli ATCC25922): 8 µg/mL
- MIC (P. aeruginosa H188): 8 µg/mL
- tR, retention time during RP-HPLC (relative hydrophobicity) [1]: 33.6 min
- Tryptophan fluorescence emission maximum [2]: 350 nm
- Blue shift in emission maximum [3, 5]: 21 nm
- Tryptophan fluorescence emission maximum [3, 6]: 329 nm
- Blue shift in emission maximum [3, 7]: 1 nm
- Tryptophan fluorescence emission maximum [3, 8]: 349 nm
- [θ]222, mean residue molar ellipticity, benign [4]: −2,839 degree·cm^2·dmol^−^1
- [θ]222, mean residue molar ellipticity, 50% TFE [4]: −27,857 degree·cm^2·dmol^−^1
- % helix, 50% TFE [4]: 92.7%
- % helix, benign [4]: 9.4%

Substance: Ac-KWKSFLKTFKSAKKTSLHTALKAISS-NH2 [Peptide V16S]
- MIC (E. coli DH5α): 8 µg/mL
- MIC (E. coli Clinical Isolate): 16 µg/mL
- MIC (P. aeruginosa ATCC27853): 32 µg/mL
- MIC (E. coli ATCC25922): 8 µg/mL
- MIC (P. aeruginosa H188): 4 µg/mL
- tR, retention time during RP-HPLC (relative hydrophobicity) [1]: 34.3 min
- Tryptophan fluorescence emission maximum [2]: 350 nm
- Blue shift in emission maximum [3, 5]: 22 nm
- Tryptophan fluorescence emission maximum [3, 6]: 328 nm
- Blue shift in emission maximum [3, 7]: 1 nm
- Tryptophan fluorescence emission maximum [3, 8]: 349 nm
- [θ]222, mean residue molar ellipticity, benign [4]: −1,760 degree·cm^2·dmol^−^1
- [θ]222, mean residue molar ellipticity, 50% TFE [4]: −28,949 degree·cm^2·dmol^−^1
- % helix, 50% TFE [4]: 96.3%
- % helix, benign [4]: 5.9%
